Assay results taken from patent publication US20050084505A1, “Utilization of ubiquinones for influencing the effect of histamine” (priority 2002, published 2005).

What was measured:
[1] = test system: Isolated, perfused and ventilated lungs from adult rats; assay: Isolated, perfused and ventilated rat lung, histamine-induced constriction
Experimental: Isolated, perfused and ventilated lungs from adult rats (280 to 330 g body weight) were injected with 50 pg of histamine per lung. After 2 to […], this caused constriction of the bronchial and pulmonary vessels with reduction of the lung extensibility.

[2] = test system: prepared lung tissue and trachea pieces of guinea pigs; details: tissue not aerated, cited from earlier work
[3] = upon the action of γ-globulin on lung tissue

For `COC1=C(OC)C(=O)C(C/C=C(\C)CC/C=C(\C)CC/C=C(\C)CC/C=C(\C)CC/C=C(\C)CC/C=C(\C)CC/C=C(\C)CC/C=C(\C)CC/C=C(\C)CCC=C(C)C)=C(C)C1=O` [CoQ-10, 2,3-dimethoxy-5-methyl-6-decaprenyl-1,4-benzoquinone], the “spontaneous vasoconstriction of the lung vessels” value ([1]; 2.7 ppm in the perfusate, compared with control perfusion (even below)) is listed as “decreased”, the “delayed histamine reaction (constriction of the bronchial and pulmonary vessels with reduction of the lung extensibility)” value ([1]; previous addition of 2.7 ppm in the perfusate, 50 pg of histamine per lung, reaction after 2 to 3 hours) is listed as “completely prevented” and the “contraction of lung tissue by added histamine” value ([2]; continuously administered) is listed as “increased”. The “secretion of SRS-A” value [2, 3] was “reduced” and the secretion of histamines [2, 3] was “reduced”.
